# Activity calls are given as the source filed them. The calls are words filed in the database; no cut-off is given here.
# What was measured:
# Danio rerio [1] = species on record: Danio rerio; test: Toxicity in wild type zebrafish embryos assessed as growth retardation at 15 ug/ml treated for 96 hrs post fertilization starting from 6 hrs post fertilization by inverted microscopic analysis relative to control; format: organism-based; conditions: in vivo
# [2] = Toxicity in wild type zebrafish embryos assessed as dead embryo at 15 ug/ml treated for 96 hrs post fertilization starting from 6 hrs post fertilization by inverted microscopic analysis relative to control; format: organism-based, Danio rerio; conditions: in vivo, read-out: Activity
# Tyrosinase (Danio rerio) [3] = molecular target: T1, Tyrosinase (Danio rerio) (UniProt A0A8M1PAD4); test: Inhibition of zebrafish embryo tyrosinase assessed as residual activity at 5 ug/ml after 48 hrs relative to control
# T1 sequence (whole entry): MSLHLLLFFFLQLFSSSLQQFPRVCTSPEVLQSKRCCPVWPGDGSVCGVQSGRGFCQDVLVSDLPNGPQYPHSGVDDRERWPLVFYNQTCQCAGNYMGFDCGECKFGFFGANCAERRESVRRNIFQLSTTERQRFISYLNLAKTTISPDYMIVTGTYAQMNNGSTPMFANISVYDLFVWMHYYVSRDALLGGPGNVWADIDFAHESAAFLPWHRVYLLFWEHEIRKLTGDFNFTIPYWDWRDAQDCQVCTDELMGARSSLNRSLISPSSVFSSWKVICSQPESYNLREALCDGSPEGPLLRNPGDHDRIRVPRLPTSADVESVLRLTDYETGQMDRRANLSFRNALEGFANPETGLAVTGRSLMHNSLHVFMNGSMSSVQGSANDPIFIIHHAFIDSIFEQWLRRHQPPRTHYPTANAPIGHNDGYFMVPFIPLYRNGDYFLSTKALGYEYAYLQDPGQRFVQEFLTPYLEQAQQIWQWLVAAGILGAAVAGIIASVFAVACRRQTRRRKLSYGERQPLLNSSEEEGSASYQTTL
# Tyrosinase (Danio rerio) [4] = molecular target: T1, Tyrosinase (Danio rerio); test: Inhibition of zebrafish embryo tyrosinase assessed as melanin production at 5 ug/ml after 48 hrs relative to control; values are per cent of control
# Danio rerio [5] = species on record: Danio rerio; test: Toxicity in wild type zebrafish embryos assessed as normal embryo at 15 ug/ml treated for 96 hrs post fertilization starting from 6 hrs post fertilization by inverted microscopic analysis relative to control; format: organism-based; conditions: in vivo
# Melanocyte [6] = test: Cytotoxicity against wild type zebrafish embryo melanocytes assessed as change in morphology at to 25 ug/ml treated for 72 hrs post fertilization starting from 6 to 24 hrs post fertilization; format: cell-based, Danio rerio
# Tyrosinase (Danio rerio) [7] = molecular target: T1, Tyrosinase (Danio rerio); test: Inhibition of zebrafish embryo tyrosinase assessed as residual activity at 10 ug/ml after 48 hrs relative to control
# Danio rerio [8] = species on record: Danio rerio; test: Toxicity in wild type zebrafish embryos assessed as skeletal deformities at 15 ug/ml treated for 96 hrs post fertilization starting from 6 hrs post fertilization by inverted microscopic analysis relative to control; format: organism-based; conditions: in vivo
# Melanocyte [9] = test: Cytotoxicity against wild type zebrafish embryo melanocytes assessed as size of melanocyte at to 25 ug/ml treated for 72 hrs post fertilization starting from 6 to 24 hrs post fertilization; format: cell-based, Danio rerio
# Danio rerio [10] = species on record: Danio rerio; test: Toxicity in wild type zebrafish embryos assessed as heart beat at 50 ug/ml treated for 96 hrs post fertilization starting from 6 hrs post fertilization by inverted microscopic analysis relative to control; format: organism-based; conditions: in vivo
# Tyrosinase (Danio rerio) [11] = molecular target: T1, Tyrosinase (Danio rerio); test: Inhibition of zebrafish embryo tyrosinase assessed as residual activity at 15 ug/ml after 48 hrs relative to control
# Danio rerio [12] = species on record: Danio rerio; test: Toxicity in wild type zebrafish embryos assessed as growth retardation at 50 ug/ml treated for 96 hrs post fertilization starting from 6 hrs post fertilization by inverted microscopic analysis relative to control; format: organism-based; conditions: in vivo
# Melanocyte [13] = test: Anti-melanogenic activity in wild type zebrafish embryo melanocytes assessed as decrease in pigmentation at 25 ug/ml treated for 72 hrs post fertilization starting from 6 to 24 hrs post fertilization; format: functional, cell-based; conditions: Danio rerio
# Neutrophil [14] = test: Anti-melanogenic activity in mpx:GFP transgenic zebrafish 24 hrs post fertilization embryo neutrophils assessed as decrease in pigmentation at 25 ug/ml; format: functional, cell-based; conditions: Danio rerio
# Tyrosinase (Danio rerio) [15] = molecular target: T1, Tyrosinase (Danio rerio); test: Inhibition of zebrafish embryo tyrosinase assessed as melanin production at 20 ug/ml after 48 hrs relative to control; values are per cent of control
# Danio rerio [16] = species on record: Danio rerio; test: Toxicity in wild type zebrafish embryos assessed as heart beat at 15 ug/ml treated for 96 hrs post fertilization starting from 6 hrs post fertilization by inverted microscopic analysis relative to control; format: organism-based; conditions: in vivo
# Tyrosinase (Danio rerio) [17] = molecular target: T1, Tyrosinase (Danio rerio); test: Inhibition of zebrafish embryo tyrosinase assessed as melanin production at 10 ug/ml after 48 hrs relative to control; values are per cent of control
# Tyrosinase [18] = molecular target: T2, Tyrosinase (Danio rerio, UniProt A0A8M1PAD4); test: Inhibition of zebrafish embryo tyrosinase assessed as residual activity after 48 hrs
# T2 sequence (A0A8M1PAD4 whole entry): T1 sequence (whole entry)
# Danio rerio [19] = species on record: Danio rerio; test: Toxicity in wild type zebrafish embryos assessed as head malformation at 15 ug/ml treated for 96 hrs post fertilization starting from 6 hrs post fertilization by inverted microscopic analysis relative to control; format: organism-based; conditions: in vivo
# Danio rerio [20] = species on record: Danio rerio; test: Toxicity in wild type zebrafish embryos assessed as otoliths at 15 ug/ml treated for 96 hrs post fertilization starting from 6 hrs post fertilization by inverted microscopic analysis relative to control; format: organism-based; conditions: in vivo
# Tyrosinase (Danio rerio) [21] = molecular target: T1, Tyrosinase (Danio rerio); test: Potency index, ratio of kojic acid IC50 to compound IC50 for zebrafish embryo tyrosinase assessed as melanin production
# Danio rerio [22] = species on record: Danio rerio; test: Toxicity in wild type zebrafish embryos assessed as skeletal deformities at 50 ug/ml treated for 96 hrs post fertilization starting from 6 hrs post fertilization by inverted microscopic analysis relative to control; format: organism-based; conditions: in vivo
# Melanocyte [23] = test: Cytotoxicity against wild type zebrafish embryo melanocytes assessed as number of melanocyte at 25 ug/ml treated for 72 hrs post fertilization starting from 6 to 24 hrs post fertilization; format: cell-based, Danio rerio
# Danio rerio [24] = test: Toxicity in wild type zebrafish embryos assessed as pericardial edema at 50 ug/ml treated for 96 hrs post fertilization starting from 6 hrs post fertilization by inverted microscopic analysis relative to control; format: organism-based; conditions: in vivo
# Neutrophil [25] = test: Cytotoxicity against […] transgenic zebrafish 24 hrs post fertilization embryo neutrophils assessed as reduction in neutrophil at 25 ug/ml treated for 72 hrs post fertilization starting from 6 to 24 hrs post fertilization; format: cell-based, Danio rerio
# Danio rerio [26] = species on record: Danio rerio; test: Toxicity in wild type zebrafish embryos assessed as unhatched embryo at 50 ug/ml treated for 96 hrs post fertilization starting from 6 hrs post fertilization by inverted microscopic analysis relative to control; format: organism-based; conditions: in vivo
# Danio rerio [27] = species on record: Danio rerio; test: Toxicity in wild type zebrafish embryos assessed as eyes at 15 ug/ml treated for 96 hrs post fertilization starting from 6 hrs post fertilization by inverted microscopic analysis relative to control; format: organism-based; conditions: in vivo
# Danio rerio [28] = species on record: Danio rerio; test: Toxicity in wild type zebrafish embryos assessed as head malformation at 20 ug/ml treated for 96 hrs post fertilization starting from 6 hrs post fertilization by inverted microscopic analysis relative to control; format: organism-based; conditions: in vivo
# Tyrosinase (Danio rerio) [29] = molecular target: T1, Tyrosinase (Danio rerio); test: Potency index, ratio of kojic acid IC50 to compound IC50 for zebrafish embryo tyrosinase assessed as residual activity
# Danio rerio [30] = species on record: Danio rerio; test: Toxicity in wild type zebrafish embryos assessed as notochord at 15 ug/ml treated for 96 hrs post fertilization starting from 6 hrs post fertilization by inverted microscopic analysis relative to control; format: organism-based; conditions: in vivo
# Tyrosinase [31] = molecular target: T2, Tyrosinase; test: Inhibition of zebrafish embryo tyrosinase assessed as melanin production after 48 hrs
# Danio rerio [32] = species on record: Danio rerio; test: Toxicity in wild type zebrafish embryos assessed as teratogenic embryo at 15 ug/ml treated for 96 hrs post fertilization starting from 6 hrs post fertilization by inverted microscopic analysis relative to control; format: organism-based; conditions: in vivo
Compound,Activity (Danio rerio [1]) [%],mortality at 15 ug/ml [2] [%],Activity (Tyrosinase (Danio rerio) [3]) [%],melanin content % of control (Tyrosinase (Danio rerio) [4]) [%],Activity (Danio rerio [5]) [%],Activity (Melanocyte [6]),Activity (Tyrosinase (Danio rerio) [7]) [%],Activity (Danio rerio [8]) [%],Activity (Melanocyte [9]),Activity (Danio rerio [10]) [%],Activity (Tyrosinase (Danio rerio) [11]) [%],Activity (Danio rerio [12]) [%],Activity (Melanocyte [13]),Activity (Neutrophil [14]),melanin content % of control (Tyrosinase (Danio rerio) [15]) [%],Activity (Danio rerio [16]) [%],melanin content % of control (Tyrosinase (Danio rerio) [17]) [%],IC50 (Tyrosinase [18]) [µM],Activity (Danio rerio [19]) [%],Activity (Danio rerio [20]) [%],other results
O=c1cc(-c2ccccc2)c2ccc(O)cc2o1,0,0,99,93,100,Non-Toxic,97,0,Non-Toxic,0,92,0,Active,Active,61,0,91,205,0,0,Ratio IC50 (Tyrosinase (Danio rerio) [21]): 62; Activity (Danio rerio [22]): 0%; Activity (Melanocyte [23]): Non-Toxic; Activity (Danio rerio [24]): 0%; Activity (Neutrophil [25]): Non-Toxic; Activity (Danio rerio [26]): 0%; Activity (Danio rerio [27]): 0%; Activity (Danio rerio [28]): 0%; Ratio IC50 (Tyrosinase (Danio rerio) [29]): 41; Activity (Danio rerio [30]): 0%; IC50 (Tyrosinase [31]): 103 µM; Activity (Danio rerio [32]): 0%
O=c1cc(-c2ccccc2)c2c(O)cc(O)cc2o1,0,0,95,63,100,Non-Toxic,82,0,Non-Toxic,0,76,0,Active,Active,37,0,48,90.9,0,0,Ratio IC50 (Tyrosinase (Danio rerio) [21]): 147; Activity (Danio rerio [22]): 25%; Activity (Melanocyte [23]): Non-Toxic; Activity (Danio rerio [24]): 5%; Activity (Neutrophil [25]): Non-Toxic; Activity (Danio rerio [26]): 0%; Activity (Danio rerio [27]): 0%; Activity (Danio rerio [28]): 0%; Ratio IC50 (Tyrosinase (Danio rerio) [29]): 86; Activity (Danio rerio [30]): 0%; IC50 (Tyrosinase [31]): 41.3 µM; Activity (Danio rerio [32]): 0%

# Reference: ChEMBL document CHEMBL4177616, “Potent anti-melanogenic activity and favorable toxicity profile of selected 4-phenyl hydroxycoumarins in the zebrafish model and the computational molecular modeling studies” (Bioorg Med Chem, 2017)
